# In patent US11406649B2, “Treatment of upper aerodigestive tract disorders and cough” (IVIEW THERAPEUTICS, INC., priority 2018, dated 2022):
# “Also recorded” adds a separate entry of the source.
# Legend:
# [1] = Water solubility of 1-dialkylphosphorylalkanes; format: physicochemical; conditions: water
# Source text: The DIPA compounds are colorless liquids with a density less than water. These structures differ from those described by Rowsell and Spring U.S. Pat. No. 4,070,496 because '496 structures have their “head” (phosphine oxide group) covered by larger, more lipophilic groups. […] The applicant synthesized these analogs (which are achiral, by contrast to the structures of '496 which are >95% chiral). […] This increased water-solublility is striking (Table 3). […] The DIPA analogs are now mobile in the extracellular fluids and permeate between cells to access nerve endings in the stratum basale.
# [2] = tested on: Oral Cavity and Pharynx; assay: Sensory qualities of compounds in syrup applied to base of tongue of volunteers; format: in vivo, human; conditions: for duration of unpleasant tastes: metallic, organic solvent-like, harsh
# Experimental: The DIPA compounds was 5 mg/mL in cherry-flavored syrup in a volume of 0.8 mL per dose. The sensory effect were recorded every 5 min for 1 hr.
# Tests were on four volunteers, with 3 to 5 trials per substance. Compounds were prepared in cherry-flavored syrup at 5 mg/mL and administered ˜0.8 mL per dose with a 2 mL plastic vial to the base of the tongue. The subjects asked to rate the sensations for cooling intensity, cold discomfort and adverse taste.
# The concentration of the DIPA compounds was 5 mg/mL in cherry-flavored syrup administered in a volume of 0.8 mL per dose. The sensory effect were recorded every 5 min for 1 hr.
# [3] = tested on: respiratory syncytial virus (RSV) induced cough; assay: Mouse cough model of respiratory syncytial virus infection; format: in vivo; conditions: 1 mg perioral per mouse, 1 hr before count
# [4] = molecular target: cloned hTRPM8 channel (Homo sapiens (Human), UniProt Q7Z2W7); assay: TRPM8 agonist activity, Fluo-8 calcium FLIPR assay (ChanTest); format: cell-based; conditions: for Relative Potency to L-menthol: L-menthol = 1.0; for TRPM8 Relative Potency: Table 8, DIPA-1-7 = 1; for TRPM8 bioactivity: structural modifications
# cloned hTRPM8 channel, sequence (Q7Z2W7 whole entry): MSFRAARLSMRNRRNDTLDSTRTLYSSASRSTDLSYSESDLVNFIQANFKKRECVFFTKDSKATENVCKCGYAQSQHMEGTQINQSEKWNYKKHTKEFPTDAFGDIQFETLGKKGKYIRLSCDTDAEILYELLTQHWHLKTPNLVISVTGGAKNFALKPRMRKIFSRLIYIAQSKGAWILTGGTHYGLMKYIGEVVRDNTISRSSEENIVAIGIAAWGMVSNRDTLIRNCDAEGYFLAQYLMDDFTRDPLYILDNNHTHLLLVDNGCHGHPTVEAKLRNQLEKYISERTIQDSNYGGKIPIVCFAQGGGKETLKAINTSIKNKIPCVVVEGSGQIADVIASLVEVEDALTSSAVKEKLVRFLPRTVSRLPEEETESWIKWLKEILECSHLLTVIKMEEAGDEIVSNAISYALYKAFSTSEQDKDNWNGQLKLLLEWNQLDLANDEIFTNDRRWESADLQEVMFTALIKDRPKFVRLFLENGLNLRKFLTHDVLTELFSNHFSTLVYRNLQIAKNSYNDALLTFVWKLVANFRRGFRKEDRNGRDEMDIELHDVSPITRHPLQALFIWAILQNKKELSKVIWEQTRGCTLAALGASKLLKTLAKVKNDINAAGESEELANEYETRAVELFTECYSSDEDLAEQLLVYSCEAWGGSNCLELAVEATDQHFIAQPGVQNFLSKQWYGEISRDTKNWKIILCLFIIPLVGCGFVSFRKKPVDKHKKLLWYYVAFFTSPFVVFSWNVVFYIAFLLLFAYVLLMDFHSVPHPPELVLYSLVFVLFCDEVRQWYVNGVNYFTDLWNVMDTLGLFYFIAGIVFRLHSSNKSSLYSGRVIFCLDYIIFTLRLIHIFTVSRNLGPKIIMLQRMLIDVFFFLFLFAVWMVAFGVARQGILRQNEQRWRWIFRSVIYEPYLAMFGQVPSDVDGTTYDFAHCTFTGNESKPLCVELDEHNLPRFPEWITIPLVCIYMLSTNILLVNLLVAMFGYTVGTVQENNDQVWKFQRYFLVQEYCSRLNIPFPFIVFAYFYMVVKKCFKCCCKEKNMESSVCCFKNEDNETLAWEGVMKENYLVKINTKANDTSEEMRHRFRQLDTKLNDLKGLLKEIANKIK
# Experimental: In the first set of data, the potency and in vitro effects of test compounds were evaluated on cloned hTRPM8 channel (encoded by the human TRPM8 gene, expressed in CHO cells) using a Fluo-8 calcium kit and a Fluorescence Imaging Plate Reader (FLIPR^TETRA™) instrument. […] Test solutions were in a HEPES-buffered saline, in 384-well plates, and placed into the FLIPR instrument (Molecular Devices Corporation, Union City, Calif., USA). […] The test cells were Chinese Hamster Ovary (CHO) cells stably transfected with human TRPM8 cDNAs. Concentration-response data were analyzed via FLIPR Control software) and fitted to a Hill equation for the EC50.
# [5] = tested on: acid-induced swallowing movements; assay: Suppression of acid-induced swallowing movements in the anesthetized rat; format: in vivo; conditions: for EC50: anesthetized rat; for Relative Potency: suppression of acid-induced swallowing
# Source text: A principal endogenous irritant in the linings of the upper aerodigestive tract is hydrochloric acid. Acid stimulations of the mucosa of the pharynx will elicit reflex swallowing. […] In a rat animal model, solutions of organic acids such as acetic acid and citric acid were effective in eliciting swallowing [Kajii et al., Sour taste stimulation facilitates reflex swallowing from the pharynx and larynx in the rat Physiology & Behavior 77: 321-325, 2002]. These methods for measuring sensory responses to acid can be adapted for screening the activity of DIPA-1-9. An agent that stimulates swallowing or an agent that suppress the acid challenge may then have utility in relieving dysphagia or the discomfort of heartburn, respectively. Preliminary experiments were conducted at the Pavlov Institute of Physiology, St. Petersburg, Russia, using adult male Wistar rats (see Table 11) and Wei (US 0.2015/0111852 A1). Swallowing movements was identified as the electromyogram activity and could also be visualized as laryngeal movement. Work is in progress to get more results for DIPA-1-9.
# [6] = tested on: rat skin; assay: Skin irritation tests on rat skin; format: in vivo; design: key to Redness after 20 μL applied topically to skin (scale of 0 to +++): scale of 0 to +++; scale of 0 to +++; scale of 0 to +++; scale of 0 to +++; conditions: for Redness after 20 μL applied topically to skin (scale of 0 to +++): rat skin; for skin irritancy: undiluted form
# [7] = tested on: oropharynx and esophagus; assay: Sensory events and cold discomfort of compounds on throat, chest and body; conditions: for icy cold / pain in throat: DIPA-1-9 up to 12 mg per unit; for taste: oral cavity / tongue; for sensory side-effects: menthol 5 mg in an orally dissolving tablet
# Source text: The terms “icy cold” is used to describe this adverse event in the throat.
# Most likely, the compound rapidly distributed and activated cold sensations in the eosophageal lining.
# [8] = tested on: anesthetized rat; assay: In vivo transdermal activity: shaking after topical application to abdominal skin of anesthetized rat; conditions: pure compound 20 μL on abdominal skin, counted 40 min
# Experimental: Shaking frequency was counted for 40 min after topical application.
# The importance of water solubility for permeation was further illustrated in studies on the abdominal skin of anesthetized rat. […] The pharmacokinetic determinants of bioactivity are precise. Thus, for the avoidance of cold discomfort, DIPA-1-9 has to reach the receptors in the stratum basale but not “over-stimulate”.
# [9] = Flux through excised hairless mouse skin in vitro; format: in vitro ADME
# Experimental: Test chemicals dissolved in a gel were placed in an incubation well for 8 hr and the permeated amount of the chemical measured by a high pressure liquid chromatograph equipped with a refractive detector. These tests were conducted by Prof Choi of Chosun University, Korea. The flux of DIPA-1-7 was ˜5× greater than DIPA-1-9.
# To further study the skin permeation of DIPA compounds, tests were conducted on the flux of DIPA-1-7 and DIPA-1-9 through excised hairless mouse skin in vitro. These tests were conducted by Prof Choi, Dean of the School of Pharmacy of Chosun University, Korea, and the results shown in (FIG. 5).
# [10] = molecular target: TRPM8 (Mus musculus (Mouse), UniProt Q8R4D5); assay: TRPM8 Fura-2 calcium assay in transfected CHO cells (Andersson et al.); format: cell-based; conditions: FIG. 4
# TRPM8, sequence (Q8R4D5 whole entry): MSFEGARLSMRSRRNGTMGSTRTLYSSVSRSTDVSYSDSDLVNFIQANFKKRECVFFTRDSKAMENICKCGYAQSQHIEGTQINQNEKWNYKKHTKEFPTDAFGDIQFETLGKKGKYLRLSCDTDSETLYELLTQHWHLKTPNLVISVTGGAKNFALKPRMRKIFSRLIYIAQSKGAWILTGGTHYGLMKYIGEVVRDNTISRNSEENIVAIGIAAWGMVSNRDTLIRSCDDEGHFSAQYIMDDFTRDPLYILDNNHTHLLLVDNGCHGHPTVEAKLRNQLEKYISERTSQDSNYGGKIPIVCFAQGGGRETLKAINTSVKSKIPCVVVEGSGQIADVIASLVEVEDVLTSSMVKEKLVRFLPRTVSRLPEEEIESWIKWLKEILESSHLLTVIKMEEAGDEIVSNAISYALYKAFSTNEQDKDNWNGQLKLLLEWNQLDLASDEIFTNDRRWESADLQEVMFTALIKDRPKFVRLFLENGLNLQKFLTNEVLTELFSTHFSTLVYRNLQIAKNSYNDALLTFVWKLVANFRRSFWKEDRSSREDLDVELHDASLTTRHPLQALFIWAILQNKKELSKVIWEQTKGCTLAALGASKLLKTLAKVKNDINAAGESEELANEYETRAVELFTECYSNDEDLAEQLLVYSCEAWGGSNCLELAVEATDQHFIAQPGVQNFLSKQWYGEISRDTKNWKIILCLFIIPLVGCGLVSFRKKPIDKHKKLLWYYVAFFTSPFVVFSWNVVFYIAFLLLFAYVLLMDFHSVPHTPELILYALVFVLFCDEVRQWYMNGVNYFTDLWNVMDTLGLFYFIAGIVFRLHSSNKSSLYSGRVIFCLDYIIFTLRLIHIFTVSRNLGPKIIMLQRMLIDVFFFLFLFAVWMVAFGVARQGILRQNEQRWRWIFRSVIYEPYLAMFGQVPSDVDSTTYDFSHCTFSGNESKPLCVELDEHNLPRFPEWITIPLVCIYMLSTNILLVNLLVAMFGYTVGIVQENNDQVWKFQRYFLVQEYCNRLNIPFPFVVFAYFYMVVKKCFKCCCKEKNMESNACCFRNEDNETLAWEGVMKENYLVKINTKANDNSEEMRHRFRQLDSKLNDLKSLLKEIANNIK
# Experimental: FIG. 4. is a graph of fluorescence response (Δ ratio 340/380) in TRPM8 transfected cells as a function of the logarithm of the concentration of the test compound, expressed in μM, for DIPA-1-7 (black circle), 3,4-7 (open squares), or 3,4-6 (open triangles). The assays were conducted by Andersson et al. of King's College, London, UK, using his methods described in “Modulation of the cold-activated channel TRPM8 by lysophospholipids and polyunsaturated fatty acids. Journal Neuroscience 27 (12): 3347-3355, 2007.
# In a second set, tests were made on “mixed” isopropyl-sec-butylphosphorylhexane and heptane analogs described as 3,4-6 and 3,4-7 in Table 2, and results shown in FIG. 4. […] Emission intensity from cells was measured for 90 sec, at every 4 or 5 sec, using excitation wavelengths of 340 and 380 nm and an emission of 520 nm. Fluorescence emission intensity ratios at 340 nm/380 nm excitation (R, in individual cells) were recorded with a FlexStation and the ImageMaster suite of software (PTI, South Brunswick, N.J.). Samples were tested in triplicate at each concentration and the averaged values analyzed by non-linear regression using an a sigmoidal function fit of the points to obtain an estimated EC50 (median effective concentration) (GraphPad Prism software, La Jolla, Calif.). […]
# [11] = tested on: dorsal surface of the tongue; conditions: average of 6 subjects; cited from earlier work
# [12] = 5 mg/mL in cherry-flavored syrup, ~0.8 mL
# [13] = 5 mg/mL in cherry-flavored syrup
smiles,measurement,setting,value
"CCCCCC[P@@](=O)(C(C)C)[C@@H](C)CC [3,4-6, 1-(Isopropyl-sec-butyl)-phosphinoyl-hexane]",solubility,[1],25 mg/mL
same,Adverse Taste,[2]; [12],0
"CCCCCCC[P@@](=O)(C(C)C)[C@@H](C)CC [3,4-7, 1-(Isopropyl-sec-butyl)-phosphinoyl-heptane]",solubility,[1],20 mg/mL
"COc1ccc2c3c1O[C@H]1[C@@H](O)C=C[C@H]4[C@@H](C2)N(C)CC[C@@]341 [Codeine, reference compound]",cough frequency,[3],significantly inhibited cough frequency
"CCCCP(=O)(C(C)CC)C(C)CC (stereo not shown) [DAPA-2-4, 1-Di(sec-butyl)-phosphinoyl-butane]",Relative Potency to L-menthol,[4],0.3
"CCCCCP(=O)(C(C)CC)C(C)CC (stereo not shown) [DAPA-2-5, 1-di-sec-butyl-phosphorylpentane]",solubility,[1],22 mg/mL
same,Relative Potency to L-menthol,[4],2.2
"CCCCCCP(=O)(C(C)CC)C(C)CC (stereo not shown) [DAPA-2-6, 1-Di(sec-butyl)-phosphinoyl-hexane]",solubility,[1],8 mg/mL
same,sensory effects,[2]; [13],"cold, icy cold, and adverse tastes"
same,Sensation,[2]; [12],icy cold
same,duration of unpleasant tastes,[2],at least 15 min
same,EC50,[5],1700 ± 700 µg/mL
same,Relative Potency,[5],0.05
same,Redness after 20 μL applied topically to skin (scale of 0 to +++),[6],+
same,skin irritancy,[6],skin irritants
same,Relative Potency to L-menthol,[4],4.7
same,TRPM8 Relative Potency,[4],0.87
same,icy cold / pain in throat,[7],icy cold
"CCCCCCCP(=O)(C(C)CC)C(C)CC (stereo not shown) [DAPA-2-7, 1-Di(sec-butyl)-phosphinoyl-heptane]",solubility,[1],< 3 mg/mL
same,sensory effects,[2]; [13],"cold, icy cold, and adverse tastes"
same,Sensation,[2]; [12],icy cold
same,duration of unpleasant tastes,[2],at least 15 min
same,EC50,[5],200 ± 20 µg/mL
same,Comments: duration of effect,[5]; long-lasting,lasting; > ~30 min
same,Relative Potency,[5],0.45
same,Redness after 20 μL applied topically to skin (scale of 0 to +++),[6],++
same,skin irritancy,[6],skin irritants
same,Relative Potency to L-menthol,[4],3.4
same,TRPM8 Relative Potency,[4],0.64
same,icy cold / pain in throat,[7],icy cold
same,systemic sensations of cold,[7]; higher oral doses (5 mg or more),sensations of cold on other body surfaces
"CCCCCCCCP(=O)(C(C)CC)C(C)CC (stereo not shown) [DAPA-2-8, 1-Di(sec-butyl)-phosphinoyl-octane]",solubility,[1],< 3 mg/mL
same,Sensation,[2]; [12],cold
same,duration of unpleasant tastes,[2],at least 15 min
same,EC50,[5],560 ± 170 µg/mL
same,Relative Potency,[5],0.16
same,Relative Potency to L-menthol,[4],2.9
same,TRPM8 Relative Potency,[4],0.71
"CCCCCP(=O)(CC(C)C)CC(C)C [DAPA-3-1, 1-di(iso-butyl) phosphinoyl-pentane]",Relative Potency to L-menthol,[4],0.2
same,TRPM8 bioactivity,[4],significant loss of bioactivity
"CCC(C)P(=O)(CCC(C)C)C(C)CC (stereo not shown) [DAPA-3-2, 1-Di(sec-butyl) phosphinoyl-3-methyl-butane]",Relative Potency to L-menthol,[4],0.9
same,TRPM8 bioactivity,[4],significant loss of bioactivity
"CCCCCP(=O)(C(C)C)C(C)C [DIPA-1-5, 1-Di(isopropyl)-phosphinoyl-pentane]",Relative Potency to L-menthol,[4],0.7
same,shaking after topical application,[8],robust shaking
"CCCCCCP(=O)(C(C)C)C(C)C [DIPA-1-6, 1-Di(isopropyl)-phosphinoyl-hexane]",Relative Potency to L-menthol,[4],1.6
same,shaking after topical application,[8],robust shaking
same,icy cold / pain in throat,[7],icy cold
"CCCCCCCP(=O)(C(C)C)C(C)C [DIPA-1-7, 1-Di(isopropyl)-phosphinoyl-heptane]",solubility,[1],> 300 mg/mL
same,penetration of excised skin,[9],very active in penetrating the excised skin
same,flux relative to DIPA-1-9,"[9]; gel, 8 hr",~5 ×
same,decrease in rate of permeation by added standard enhancers,[9]; propylene glycol-oleyl alcohol (50:50) or Lauroglycol 90 added to gel,~50%
same,sensory effects,[2]; [13],"cold, icy cold, and adverse tastes; also recorded: icy pain in the back of the throat"
same,Sensation,[2]; [12],painful cold
same,duration of unpleasant tastes,[2],at least 15 min
same,"potency for activation of TRPM8 relative to 3,4-6",[10],~10 ×
same,"potency for activation of TRPM8 relative to 3,4-7",[10],~5 ×
same,EC50,[5],820 ± 80 µg/mL
same,Relative Potency,[5],0.11
same,Relative Potency to L-menthol,[4],5.4
same,TRPM8 Relative Potency,[4],1
same,shaking after topical application,[8],vigorous shaking; also recorded: robust shaking
same,icy cold / pain in throat,[7],icy cold
same,cold in the chest / behind sternum,[7]; in vivo,"spreads behind the sternum, into the chest"
same,taste,[7],this taste is present
"CCCCCCCCP(=O)(C(C)C)C(C)C [DIPA-1-8, 1-Di(isopropyl)-phosphinoyl-octane]",solubility,[1],> 300 mg/mL
same,sensory effects,[2]; [13],"cold, icy cold, and adverse tastes"
same,Sensation,[2]; [12],cold
same,duration of unpleasant tastes,[2],at least 15 min
same,Relative Potency to L-menthol,[4],5.4
same,taste,[7],this taste is present
"CC(C)[C@@H]1CC[C@@H](C)C[C@H]1O [Menthol, reference compound]","Threshold, μg (cooling on tongue)",[11],0.25 µg
same,sensory side-effects,[7],chest discomfort
"O=C1NC(c2cccc([N+](=O)[O-])c2)=CCN1c1ccccc1O [icilin, reference compound]",sensory side-effects,[7],did not produce cooling in the chest or the desired sensations on the throat
